Laboratory results reported in patent US20260152494A1, “CDK2 INHIBITORS AND METHODS OF USING THE SAME” (Cedilla Therapeutics, Inc., priority 2022, published 2026).
pIC50: −log10 of the molar value.

How the values were obtained:
[1] = test system: Kuramochi cells labeled with mApple-H2B; assay: IncuCyte cell proliferation assay; assay type: cell-based; details: Kuramochi RB-WT cells, 72 hours, cell count normalized to DMSO
Description: Example A3: IncuCyte® Cell Proliferation Assay
IncuCyte® assay was used to measure the effect of disclosed compounds on cell proliferation. Fluorescent microscopy images of cells were taken immediately after compound treatment and 72 hours later. Image analysis software was used to obtain cell counts as a function of compound concentration. Kuramochi cells labeled with mApple-H2B were seeded on 384-well assay-ready plates. Plates were placed in an IncuCyte® (Sartorius) and scanned at 0 and 72 hours. IncuCyte® software was used to count the number of fluorescent nuclei in each well. The fold change in cell count from 0 to 72 hours in wells treated with increasing compounds concentrations (10 pts, 1/2 log dilution, 20 μM top concentration) was normalized to DMSO control wells. The normalized cell counts were fit with dose response curves and a GI50 was calculated.

[2] = target: T1, CDK2/Cyclin E1 (Homo sapiens, UniProt P24941); assay: ADPGLO (CDK2/E1-37C) ADP-Glo Luminescent Kinase Assay; assay type: biochemical; details: 0.18 nM CDK2/Cyclin E1, 100 μM ATP, 1.5 μM Histone H1, 37° C., 60 min preincubation
T1 construct: purchased Eurofins 14-475
Description: Example A2: ADPGLO (CDK2/E1-37C)
Inhibition of CDK2/Cyclin E1 activity by the presence of small molecules was evaluated using ADP-Glo Luminescent Kinase Assay (Promega). Activated CDK2/Cyclin E1 was incubated with its substrate Histone H1 (SignalChem H10-54N) in the kinase reaction buffer (100 μM ATP, 50 mM HEPES pH 7.5, 10 mM MgCl2, 1 mM EDTA, 2 mM DTT, 0.01% Brij35, 0.5 mg/mL BSA). Luminescence was recorded with an Envision plate reader (PerkinElmer).
Dose titrations of inhibitors in 100% DMSO were combined with 0.36 nM CDK2/Cyclin E1 in reaction buffer. The mixtures were incubated for 60 minutes at 37° C. before the addition of ATP and Histone H1 substrate to initiate the kinase reaction. The final conditions were 0.18 nM CDK2/Cyclin E1, 100 μM ATP, and 1.5 μM Histone H1. The reactions were incubated at 37° C. for 90 minutes before being stopped with the addition of ADP-Glo reagent. This mixture was incubated at room temperature for 60 minutes before Kinase Detection Solution is added to generate luminescence. The stopped reactions were analyzed on an Envision plate reader. The conversion ratios were normalized to yield % activity, plotted against compound concentration, and fit to a four-parameter equation to determine the IC50 for each compound.

[3] = target: T1, CDK2/Cyclin E1; assay: CDK2/Cyclin E1 Caliper LabChip EZ Reader mobility shift assay; assay type: biochemical; details: 2.5 nM CDK2/Cyclin E1, 100 μM ATP, 1.5 μM fluorescent peptide, 30 min preincubation; read-out: Caliper Assay (CDK2/CCNE1): IC50
Description: Example A1: CDK2/Cyclin E1 Caliper Assay
Inhibition of CDK2/Cyclin E1 activity in the presence of compounds of the present disclosure was evaluated using a Caliper LabChip® EZ Reader mobility shift assay. In the assay, CDK2/Cyclin E1 (Eurofins, 14-475) catalyzed the phosphorylation of a fluorescently tagged peptide 5-FAM-QSPKKG-CONH2 (PerkinElmer, FL Peptide 18) which induced a difference in capillary electrophoresis mobility. The peptide substrate and product were measured, and the conversion ratio was used to determine the inhibition (as % activity and IC50 values) of CDK2/Cyclin E1. Reactions contained 50 mM HEPES pH 7.5, 10 mM MgCl2, 1 mM EDTA, 2 mM DTT, 0.01% Brij35, 0.5 mg/mL BSA, 0.1% DMSO, 2.5 nM CDK2/Cyclin E1, 100 μM ATP, and 1.5 μM fluorescent peptide substrate.
Dose titrations of inhibitors in 100% DMSO were combined with 3.25 nM CDK2/Cyclin E1 and 130 μM of ATP in reaction buffer. The mixtures were incubated for 30 minutes before the addition of fluorescent peptide substrate to initiate the kinase reaction. The final conditions were 2.5 nM CDK2/Cyclin E1, 100 μM ATP, and 1.5 μM fluorescent peptide. The reactions were stopped after 100 minutes with the addition of EDTA (400 mM final EDTA concentration). The stopped reactions were analyzed on a Caliper LabChip® EZ Reader II. The conversion ratios were normalized to yield % activity, plotted against compound concentration, and fit to a four-parameter equation to determine the IC50 for each compound.

Structure (SMILES)	pIC50 [1]	pIC50 [2]	pIC50 [3]
C[C@@H](OCC1CCCCC1)[C@H](NC(=O)[C@H]1CN(C(=O)c2cncs2)CC12CCOCC2)C(=O)N1CCC(c2ccc(C(=O)O)cc2)CC1 (single isomer, unassigned) [I-4 1st, 4-(1-(O-(cyclohexylmethyl)-N-(2-(thiazole-5-carbonyl)-8-oxa-2-azaspiro[4.5]decane-4-carbonyl)-L-threonyl)piperidin-4-yl)benzoic acid]	< 4.70	< 5.00	–
C[C@@H](OCC1CCCCC1)[C@H](NC(=O)[C@@H]1CN(C(=O)c2cncs2)CC12CCOCC2)C(=O)N1CCC(c2ccc(C(=O)O)cc2)CC1 (single isomer, unassigned) [I-4 2nd, 4-(1-(O-(cyclohexylmethyl)-N-(2-(thiazole-5-carbonyl)-8-oxa-2-azaspiro[4.5]decane-4-carbonyl)-L-threonyl)piperidin-4-yl)benzoic acid]	< 4.70	< 5.00	–
C[C@@H](OCC1CCCCC1)[C@H](NC(=O)[C@@H]1CN(Cc2cnn(Cc3ccccc3)c2)C(=O)C12CN(C(=O)[C@H]1CC1(C)C)C2)C(=O)N1CCC(c2nccs2)CC1 [Compound I-5, (S)-6-((1-benzyl-1H-pyrazol-4-yl)methyl)-N-((2S,3R)-3-(cyclohexylmethoxy)-1-oxo-1-(4-(thiazol-2-yl)piperidin-1-yl)butan-2-yl)-2-((S)-2,2-dimethylcyclopropane-1-carbonyl)-5-oxo-2,6-diazaspiro[3.4]octane-8-carboxamide]	≥ 6.30	≥ 6.30	–
CC1(C)C[C@@H]1C(=O)N1CC2(C1)C(=O)N(Cc1cncs1)CC2c1nnc(C(F)(F)c2ccc(Cl)c(Cl)c2)o1 (stereo partly drawn) [Compound I-6, 8-(5-((3,4-dichlorophenyl)difluoromethyl)-1,3,4-oxadiazol-2-yl)-2-((S)-2,2-dimethylcyclopropane-1-carbonyl)-6-(thiazol-5-ylmethyl)-2,6-diazaspiro[3.4]octan-5-one]	< 4.70	< 4.00	< 5.00
C[C@@H](OCC1CCCCC1)[C@H](NC(=O)C1CSCC12CN(C(=O)[C@H]1CC1(C)C)C2)C(=O)N1CCCCC1 (stereo partly drawn) [Compound I-23, N-((2S,3R)-3-(cyclohexylmethoxy)-1-oxo-1-(piperidin-1-yl)butan-2-yl)-2-((S)-2,2-dimethylcyclopropane-1-carbonyl)-6-thia-2-azaspiro[3.4]octane-8-carboxamide]	< 4.70	–	< 5.00
CC(=O)N[C@@H](C(=O)NC1CN(C(=O)c2cncs2)CC12CN(C(=O)[C@H]1CC1(C)C)C2)[C@H](C)OCC1CCCCC1 (stereo partly drawn) [Compound I-24, (2R,3S)-2-acetamido-3-(cyclohexylmethoxy)-N-(2-((S)-2,2-dimethylcyclopropane-1-carbonyl)-6-(thiazole-5-carbonyl)-2,6-diazaspiro[3.4]octan-8-yl)butanamide]	< 4.70	–	5.00 to 6.00
CC(=O)N[C@@H](C(=O)NC1CN(C(=O)c2cnn(Cc3ccccc3)c2)CC12CN(C(=O)[C@H]1CC1(C)C)C2)[C@H](C)OCC1CCCCC1 (stereo partly drawn) [Compound I-25, (2R,3S)-2-acetamido-N-(6-(1-benzyl-1H-pyrazole-4-carbonyl)-2-((S)-2,2-dimethylcyclopropane-1-carbonyl)-2,6-diazaspiro[3.4]octan-8-yl)-3-(cyclohexylmethoxy)butanamide]	< 4.70	–	6.00 to 7.00
C[C@@H](OCC1CCCCC1)[C@H](NC(=O)C1CS(=O)(=O)CC12CN(C(=O)[C@H]1CC1(C)C)C2)C(=O)N1CCCCC1 (stereo partly drawn) [Compound I-26, N-((2S,3R)-3-(cyclohexylmethoxy)-1-oxo-1-(piperidin-1-yl)butan-2-yl)-2-((S)-2,2-dimethylcyclopropane-1-carbonyl)-6-thia-2-azaspiro[3.4]octane-8-carboxamide 6,6-dioxide]	< 4.70	–	< 5.00
CC1(C)C[C@@H]1C(=O)N1CC2(CN(C(=O)c3cncs3)CC2C#N)C1 (stereo partly drawn) [Compound I-27, 2-((S)-2,2-dimethylcyclopropane-1-carbonyl)-6-(thiazole-5-carbonyl)-2,6-diazaspiro[3.4]octane-8-carbonitrile]	< 4.70	–	< 5.00
CCOC(=O)[C@@H]1CN(C(C)=O)CC12CN(C(C)=O)C2 [Compound I-28, ethyl (S)-2,6-diacetyl-2,6-diazaspiro[3.4]octane-8-carboxylate]	< 4.70	–	< 5.00
CNC(=O)[C@@H](NC(=O)[C@@H]1CN(C(=O)c2cnn(Cc3ccccc3)c2)CC12CN(C(=O)N(C)C1CC1)C2)[C@@H](C)OCC1CCCCC1 [Compound I-30, (S)-6-(1-benzyl-1H-pyrazole-4-carbonyl)-N8-((2S,3R)-3-(cyclohexylmethoxy)-1-(methylamino)-1-oxobutan-2-yl)-N2-cyclopropyl-N2-methyl-2,6-diazaspiro[3.4]octane-2,8-dicarboxamide]	< 4.70	–	6.00 to 7.00
C[C@@H](OCC1CCCCC1)[C@H](NC(=O)[C@@H]1CNCC12CN(C(=O)[C@H]1CC1(C)C)C2)C(=O)N1CCOCC1 [Compound I-32, (S)—N-((2S,3R)-3-(cyclohexylmethoxy)-1-morpholino-1-oxobutan-2-yl)-2-((S)-2,2-dimethylcyclopropane-1-carbonyl)-2,6-diazaspiro[3.4]octane-8-carboxamide]	< 4.70	–	< 5.00
C[C@@H](OCC1CCCCC1)[C@H](NC(=O)[C@@H]1CN(C(=O)OC(C)(C)C)CC12CN(C(=O)[C@H]1CC1(C)C)C2)C(=O)N1CCOCC1 [Compound I-33]	< 4.70	–	5.00 to 6.00
CC(=O)N1C[C@@H](C(=O)N[C@H](C(=O)N2CCOCC2)[C@@H](C)OCC2CCCCC2)C2(C1)CN(C(=O)[C@H]1CC1(C)C)C2 [Compound I-36, (S)-6-acetyl-N-((2S,3R)-3-(cyclohexylmethoxy)-1-morpholino-1-oxobutan-2-yl)-2-((S)-2,2-dimethylcyclopropane-1-carbonyl)-2,6-diazaspiro[3.4]octane-8-carboxamide]	< 4.70	–	< 5.00
C[C@@H](OCC1CCCCC1)[C@H](NC(=O)[C@@H]1CNCC12CN(C(=O)[C@H]1CC1(C)C)C2)C(=O)N1CCCCC1 [Compound I-37, (S)—N-((2S,3R)-3-(cyclohexylmethoxy)-1-oxo-1-(piperidin-1-yl)butan-2-yl)-2-((S)-2,2-dimethylcyclopropane-1-carbonyl)-2,6-diazaspiro[3.4]octane-8-carboxamide]	< 4.70	–	< 5.00
C[C@@H](OCC1CCCCC1)[C@H](NC(=O)[C@@H]1CN(C(=O)OC(C)(C)C)CC12CN(C(=O)[C@H]1CC1(C)C)C2)C(=O)N1CCCCC1 [Compound I-38]	< 4.70	–	5.00 to 6.00
CNC(=O)[C@@H](NC(=O)[C@@H]1CN(C(C)=O)CC12CN(C(=O)[C@H]1CC1(C)C)C2)[C@@H](C)OCC1CCCCC1 [Compound I-39]	< 4.70	–	< 5.00
C[C@@H](OCC1CCCCC1)[C@H](NC(=O)C1CN(C(=O)c2cncs2)CC12CCN(C(=O)[C@H]1CC1(C)C)CC2)C(=O)N1CCC(c2ccc(C(=O)O)cc2)CC1 (stereo partly drawn) [Compound I-41, 4-(1-(O-(cyclohexylmethyl)-N-(8-((S)-2,2-dimethylcyclopropane-1-carbonyl)-2-(thiazole-5-carbonyl)-2,8-diazaspiro[4.5]decane-4-carbonyl)-L-threonyl)piperidin-4-yl)benzoic acid]	< 4.70	≥ 6.30	–
